Reference: patent publication US5229381A, “Substituted azetidinones as anti-inflammatory and antidegenerative agents” (Merck & Co., Inc., priority 1991, dated 1993)
Read-outs that look alike come from different tables or passages of the source.

Target: T1, human polymorphonuclear leukocyte elastase (Homo sapiens, UniProt P08246)
T1 construct: Crude extract of human polymorphonuclear leukocytes (PMN) containing elastase activity; endogenous in cells; host or cells: human polymorphonuclear leukocytes (crude extract)
T1 sequence (P08246 30-247 limits assumed): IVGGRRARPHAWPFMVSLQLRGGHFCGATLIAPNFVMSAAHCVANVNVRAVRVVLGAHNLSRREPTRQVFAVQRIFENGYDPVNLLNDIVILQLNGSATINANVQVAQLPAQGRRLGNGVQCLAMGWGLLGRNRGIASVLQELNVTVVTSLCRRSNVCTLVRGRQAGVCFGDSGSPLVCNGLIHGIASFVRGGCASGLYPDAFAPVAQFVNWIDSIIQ
Experiment: Inhibition of human polymorphonuclear leukocyte (granulocyte) elastase via hydrolysis of Boc-AAPAN or Boc-AAPVN
Format: biochemical
Settings: (per mole per second), read-out: kobs/I, second order rate constant of inactivation of the enzyme

SMILES	kinact/KI (pH 7.5, Table III) [M⁻¹ s⁻¹]	kinact/KI (pH 7.5, Table II) [M⁻¹ s⁻¹]
CCC1(CC)C(=O)N(C(=O)NCc2ccc(C)cc2)C1Oc1ccc(C(=O)O)c(O)c1 (stereo not drawn)	9250	–
CCC1(CC)C(=O)N(C(=O)NCc2ccc(-c3ccccc3)cc2)C1Oc1ccc(CC(=O)O)cc1 (stereo not drawn)	28900	–
CCC1(CC)C(=O)N(C(=O)NCc2ccc(C)c(C)c2)C1Oc1ccc(C(O)C(=O)O)cc1 (stereo not drawn)	17600	–
CCC1(CC)C(=O)N(C(=O)NCc2ccc(S(C)(=O)=O)cc2)C1Oc1ccc(C(=O)O)cc1 (stereo not drawn)	3350	–
CCC1(CC)C(=O)N(C(=O)NCc2ccc(C)c(C)c2)C1Oc1ccc(C(=O)O)cc1 (stereo not drawn)	20600	–
CCC1(CC)C(=O)N(C(=O)NCc2ccc3c(c2)CCCC3)C1Oc1ccc(C(=O)O)cc1 (stereo not drawn)	62900	–
CCC1(CC)C(=O)N(C(=O)NCc2ccc(Cc3ccccc3)cc2)C1Oc1ccc(C(=O)O)cc1 (stereo not drawn)	8030	–
CCC1(CC)C(=O)N(C(=O)NCc2ccc(OCc3ccccc3)cc2)C1Oc1ccc(C(=O)O)cc1 (stereo not drawn)	12000	–
CCC1(CC)C(=O)N(C(=O)NCc2ccc(OC)c(C)c2)C1Oc1ccc(C(=O)O)cc1 (stereo not drawn)	13100	–
CCC1(CC)C(=O)N(C(=O)NCc2ccc(-c3cccc(C(=O)O)c3)cc2)C1Oc1ccc(C(=O)O)cc1 (stereo not drawn)	14700	–
CCC1(CC)C(=O)N(C(=O)NCc2ccc3cc(C(=O)O)ccc3c2)C1Oc1ccc(C(N)=O)cc1 (stereo not drawn)	40600	–
CCC1(CC)C(=O)N(C(=O)NCc2ccccc2)C1Sc1nc[nH]n1 (stereo not drawn)	116	–
CCC1(CC)C(=O)N(C(=O)NCc2ccccc2)C1Sc1nnnn1C (stereo not drawn)	3660	–
CCC1(CC)C(=O)N(C(=O)NCc2ccccc2)C1n1ccnc1 (stereo not drawn)	–	200
CCC1(CC)C(=O)N(C(=O)NCc2ccccc2)C1Oc1ccccc1CO (stereo not drawn)	–	2960
CCC1(CC)C(=O)N(C(=O)NCc2ccccc2)C1Oc1ccc2cc(C(=O)O)ccc2c1 (stereo not drawn)	–	5560
CCC1(CC)C(=O)N(C(=O)NCc2ccccc2)C1Oc1cccc(C(=O)NCc2ccccc2)c1 (stereo not drawn)	–	3050
CCC1(CC)C(=O)N(C(=O)NCc2ccccc2)C1Oc1cccc(C(=O)O)c1 (stereo not drawn)	–	1760
CCC1(CC)C(=O)N(C(=O)NCc2ccccc2)C1Oc1ccc(CC(=O)O)cc1 (stereo not drawn)	–	3180
CCC1(CC)C(=O)N(C(=O)NCc2ccc(C(=O)O)cc2)C1Oc1ccc(C(C)=O)cc1 (stereo not drawn)	–	2810
CCC1(CC)C(=O)N(C(=O)NCc2ccc(C(C)=O)cc2)C1Oc1ccc(C(C)=O)cc1 (stereo not drawn)	–	5920

SMILES	kinact/KI (pH 7.5, Table III) [M⁻¹ s⁻¹]	kinact/KI (pH 7.5, Table II) [M⁻¹ s⁻¹]
CCC1(CC)C(=O)N(C(=O)NCc2cc3ccccc3o2)C1Oc1ccc(C(=O)O)cc1 (stereo not drawn)	–	13200
CCC1(CC)C(=O)N(C(=O)NCc2ccco2)C1Oc1ccc(C(=O)O)cc1 (stereo not drawn)	–	5220
CCC1(CC)C(=O)N(C(=O)NCc2cccs2)C1Oc1ccc(C(=O)O)cc1 (stereo not drawn)	–	4920
CCC1(CC)C(=O)N(C(=O)NCc2ccc(Cl)cc2)C1Oc1ccc(C(=O)O)cc1 (stereo not drawn)	–	3420
CCC1(CC)C(=O)N(C(=O)NCc2ccc(N(C)C)cc2)C1Oc1ccc(C(=O)O)cc1 (stereo not drawn)	–	9980
CCC1(CC)C(=O)N(C(=O)NCc2ccc(Oc3ccccc3)cc2)C1Oc1ccc(C(=O)O)cc1 (stereo not drawn)	–	12000
CCC1(CC)C(=O)N(C(=O)NCC2CCCCC2)C1Oc1ccc(C(=O)O)cc1 (stereo not drawn)	–	1420
CCC1(CC)C(=O)N(C(=O)NCc2ccc3cc4ccccc4cc3c2)C1Oc1ccc(C(=O)O)cc1 (stereo not drawn)	–	36200
CCC1(CC)C(=O)N(C(=O)NCc2ccc(C)cc2)C1Oc1ccc(C(=O)O)cc1 (stereo not drawn)	–	3960
CCC1(CC)C(=O)N(C(=O)NCc2ccc(F)cc2)C1Oc1ccc(C(=O)O)cc1 (stereo not drawn)	–	2340
CCC1(CC)C(=O)N(C(=O)NCc2ccc([N+](=O)[O-])cc2)C1Oc1ccc(C(=O)O)cc1 (stereo not drawn)	–	5080
CCC1(CC)C(=O)N(C(=O)NCc2ccc(OC)cc2)C1Oc1ccc(C(=O)O)cc1 (stereo not drawn)	–	5160
CCC1(CC)C(=O)N(C(=O)NCc2ccc(-c3ccccc3)cc2)C1Oc1ccc(C(=O)O)cc1 (stereo not drawn)	–	37000
CCC1(CC)C(=O)N(C(=O)NCc2ccc(C(=O)NS(=O)(=O)c3ccc(Cl)cc3)cc2)C1Oc1ccc(C(=O)O)cc1 (stereo not drawn)	–	1730
CCC1(CC)C(=O)N(C(=O)NC(C)c2cccc3ccccc23)C1Oc1ccc(C(=O)O)cc1 (stereo not drawn)	–	14100
CCC1(CC)C(=O)N(C(=O)NC(C)c2ccc(C3CCCCC3)c(Cl)c2)C1Oc1ccc(C(=O)O)cc1 (stereo not drawn)	–	20800
CCC1(CC)C(=O)N(C(=O)NCCCc2ccccc2)C1Oc1ccc(C(=O)O)cc1 (stereo not drawn)	–	4540
CCC1(CC)C(=O)N(C(=O)NCCCCC(O)c2ccccc2)C1Oc1ccc(C(=O)O)cc1 (stereo not drawn)	–	4200
CCC1(CC)C(=O)N(C(=O)NCCCCOc2ccccc2)C1Oc1ccc(C(=O)O)cc1 (stereo not drawn)	–	3450
CCC1(CC)C(=O)N(C(=O)NCCCCc2ccccc2)C1Oc1ccc(C(=O)O)cc1 (stereo not drawn)	–	10900
CCCCCCCCCNC(=O)N1C(=O)C(CC)(CC)C1Oc1ccc(C(=O)O)cc1 (stereo not drawn)	–	8300
